Test system: NCI-H226 (lung cancer cell line)
Test: In vitro cytotoxicity by MTT assay, NCI-H226
Assay type: cell-based
Settings: Homo sapiens, NCI-H226, 0.005 μM, 72 h, read-out: % Cytotoxicity (100 − % cell survival) of NCI-H226 cell line
Outline: (§1)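 First, trypsinized cells went into wells at roughly 10,000 per well for 24 h. Next, medium was replaced with test compounds for 72 h at 37 °C. Finally, MTT was added for 4 h and the propanol-solubilized formazan read at 490 nm.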

Structure (SMILES) | cytotoxicity at 0.005 µM [%]
O=C(NS(=O)(=O)c1nnc(N=Cc2ccc(O)cc2)s1)c1ccccc1 [Compound 9e, N-({5-[(4-Hydroxybenzylidene)amino]-1,3,4-thiadiazol-2-yl}sulfonyl)benzamide] | 39.1

Same assay, conditions: Homo sapiens, NCI-H226, 0.045 μM, 72 h, read-out: % Cytotoxicity (100 − % cell survival) of NCI-H226 cell line

Structure (SMILES) | cytotoxicity at 0.045 µM [%]
O=C(NS(=O)(=O)c1nnc(N=Cc2ccc(O)cc2)s1)c1ccccc1 [Compound 9e, N-({5-[(4-Hydroxybenzylidene)amino]-1,3,4-thiadiazol-2-yl}sulfonyl)benzamide] | 41.9

Same assay, conditions: Homo sapiens, NCI-H226, 0.13 μM, 72 h, read-out: % Cytotoxicity (100 − % cell survival) of NCI-H226 cell line

Structure (SMILES) | cytotoxicity at 0.13 µM [%]
O=C(NS(=O)(=O)c1nnc(N=Cc2ccc(O)cc2)s1)c1ccccc1 [Compound 9e, N-({5-[(4-Hydroxybenzylidene)amino]-1,3,4-thiadiazol-2-yl}sulfonyl)benzamide] | 42.5

Same assay, conditions: Homo sapiens, NCI-H226, 0.41 μM, 72 h, read-out: % Cytotoxicity (100 − % cell survival) of NCI-H226 cell line

Structure (SMILES) | cytotoxicity at 0.41 µM [%]
O=C(NS(=O)(=O)c1nnc(N=Cc2ccc(O)cc2)s1)c1ccccc1 [Compound 9e, N-({5-[(4-Hydroxybenzylidene)amino]-1,3,4-thiadiazol-2-yl}sulfonyl)benzamide] | 43.4

Same assay, conditions: Homo sapiens, NCI-H226, 1.23 μM, 72 h, read-out: % Cytotoxicity (100 − % cell survival) of NCI-H226 cell line

Structure (SMILES) | cytotoxicity at 1.23 µM [%]
O=C(NS(=O)(=O)c1nnc(N=Cc2ccc(O)cc2)s1)c1ccccc1 [Compound 9e, N-({5-[(4-Hydroxybenzylidene)amino]-1,3,4-thiadiazol-2-yl}sulfonyl)benzamide] | 45.8

Same assay, conditions: Homo sapiens, NCI-H226, 3.7 μM, 72 h, read-out: % Cytotoxicity (100 − % cell survival) of NCI-H226 cell line

Structure (SMILES) | cytotoxicity at 3.7 µM [%]
O=C(NS(=O)(=O)c1nnc(N=Cc2ccc(O)cc2)s1)c1ccccc1 [Compound 9e, N-({5-[(4-Hydroxybenzylidene)amino]-1,3,4-thiadiazol-2-yl}sulfonyl)benzamide] | 47.6

Same assay, conditions: Homo sapiens, NCI-H226, 11.11 μM, 72 h, read-out: % Cytotoxicity (100 − % cell survival) of NCI-H226 cell line

Structure (SMILES) | cytotoxicity at 11.11 µM [%]
O=C(NS(=O)(=O)c1nnc(N=Cc2ccc(O)cc2)s1)c1ccccc1 [Compound 9e, N-({5-[(4-Hydroxybenzylidene)amino]-1,3,4-thiadiazol-2-yl}sulfonyl)benzamide] | 48.2

Same assay, conditions: Homo sapiens, NCI-H226, 33.33 μM, 72 h, read-out: % Cytotoxicity (100 − % cell survival) of NCI-H226 cell line

Structure (SMILES) | cytotoxicity at 33.33 µM [%]
O=C(NS(=O)(=O)c1nnc(N=Cc2ccc(O)cc2)s1)c1ccccc1 [Compound 9e, N-({5-[(4-Hydroxybenzylidene)amino]-1,3,4-thiadiazol-2-yl}sulfonyl)benzamide] | 49.3

Same assay, conditions: Homo sapiens, NCI-H226, 100 μM, 72 h, read-out: % Cytotoxicity (100 − % cell survival) of NCI-H226 cell line

Structure (SMILES) | cytotoxicity at 100 µM [%]
O=C(NS(=O)(=O)c1nnc(N=Cc2ccc(O)cc2)s1)c1ccccc1 [Compound 9e, N-({5-[(4-Hydroxybenzylidene)amino]-1,3,4-thiadiazol-2-yl}sulfonyl)benzamide] | 51.4

Test system: not listed separately
Test: In vitro cytotoxicity by MTT assay, NCI-H226
Assay type: cell-based
Settings: human, NCI-H226 lung cancer cells, 0.015 μM, read-out: % Cytotoxicity (100 − % cell survival) of NCI-H226 cell line
Outline: as §1

Structure (SMILES) | cytotoxicity at 72 h, 0.015 µM [%]
O=C(NS(=O)(=O)c1nnc(N=Cc2ccc(O)cc2)s1)c1ccccc1 [Compound 9e, N-({5-[(4-Hydroxybenzylidene)amino]-1,3,4-thiadiazol-2-yl}sulfonyl)benzamide] | 40.3

Test system: root meristem cells of Allium cepa
Test: In vitro antimitotic activity and cytogenetic analysis, Allium cepa meristem root model
Assay type: cell-based
Settings: compounds 1 mg/mL, PC (EMS) 2 × 10^−2 M
Outline: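 Onion roots (about 2–2.5 cm, five bulbs per sample) exposed to compound at 1 mg/mL at 22 ± 1 °C, with distilled water as negative and EMS (2 × 10^−2 M) as positive control. After 24 h, orcein-stained root tips were scored for mitotic index, chromatin aberrations and micronuclei per 1,000 cells. Root length at 72 h served as the general toxicity index, expressed as percentage of controls.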

Aberrant cells (%) ± SEM [%] | Chromosome breaks (%) ± SEM [%] | Polar deviations (%) ± SEM [%] | Stickiness (%) ± SEM [%] | Structure (SMILES) | MNC (‰) ± SEM (micronuclei per 1,000 cells)
26.74 ± 6.56 | 2.72 ± 0.94 | 8.41 ± 1.35 | 9.88 ± 1.46 | O=C(NS(=O)(=O)c1nnc(N=Cc2ccc(O)cc2)s1)c1ccccc1 [Compound 9e, N-({5-[(4-Hydroxybenzylidene)amino]-1,3,4-thiadiazol-2-yl}sulfonyl)benzamide] | 0.21 ± 0.06 ‰

Same assay, conditions: compounds 1 mg/mL, PC (EMS) 2 × 10^−2 M; lower MI = higher activity; negative control 6.22

Structure (SMILES) | MI (%) ± SEM (mitotic index) [%]
O=C(NS(=O)(=O)c1nnc(N=Cc2ccc(O)cc2)s1)c1ccccc1 [Compound 9e, N-({5-[(4-Hydroxybenzylidene)amino]-1,3,4-thiadiazol-2-yl}sulfonyl)benzamide] | 1.27 ± 0.11

Test system: not listed separately
Test: Superoxide anion radical scavenging (NBT/NADH/PMS)
Assay type: biochemical
Settings: Conc. ± SD; standard catechin; read-out: IC50 inhibitory concentration, Superoxide anion
Description: Measurement of superoxide anion scavenging activity of the synthesized compound was taken based on the method described by Nishimiki et al. ([1972]) and slightly modified. […] The reaction mixture was incubated at 25 °C for 5 min, and the absorbance at 560 nm was measured against blank samples. Catechin was used as reference compound. All the experiments were performed in triplicate, and the results were averaged. The percentage of inhibition was determined by comparing the results of control and test samples. The IC50 (nM/mL) value are depicted in Table 1.

IC50 [µM] | Structure (SMILES)
136 ± 22.5 | O=C(NS(=O)(=O)c1nnc(N=Cc2ccc(O)cc2)s1)c1ccccc1 [Compound 9e, N-({5-[(4-Hydroxybenzylidene)amino]-1,3,4-thiadiazol-2-yl}sulfonyl)benzamide]

Test system: not given
Test: not given
Settings: not given

melting point [°C] | Structure (SMILES)
178 to 180 | O=C(NS(=O)(=O)c1nnc(N=Cc2ccc(O)cc2)s1)c1ccccc1 [Compound 9e, N-({5-[(4-Hydroxybenzylidene)amino]-1,3,4-thiadiazol-2-yl}sulfonyl)benzamide]

Test system: not listed separately
Test: In vitro cytotoxicity by MTT assay, HEK 293
Assay type: cell-based, human
Settings: human, HEK 293 cells, 0.005 μM, read-out: % cytotoxicity (100 − % cell survival) of HEK 293 cell line
Outline: as §1

Structure (SMILES) | cytotoxicity at 72 h, 0.005 µM [%]
O=C(NS(=O)(=O)c1nnc(N=Cc2ccc(O)cc2)s1)c1ccccc1 [Compound 9e, N-({5-[(4-Hydroxybenzylidene)amino]-1,3,4-thiadiazol-2-yl}sulfonyl)benzamide] | 25.3

Same assay, conditions: human, HEK 293 cells, 0.015 μM, read-out: % cytotoxicity (100 − % cell survival) of HEK 293 cell line

Structure (SMILES) | cytotoxicity at 72 h, 0.015 µM [%]
O=C(NS(=O)(=O)c1nnc(N=Cc2ccc(O)cc2)s1)c1ccccc1 [Compound 9e, N-({5-[(4-Hydroxybenzylidene)amino]-1,3,4-thiadiazol-2-yl}sulfonyl)benzamide] | 26.7

Same assay, conditions: human, HEK 293 cells, 0.045 μM, read-out: % cytotoxicity (100 − % cell survival) of HEK 293 cell line

Structure (SMILES) | cytotoxicity at 72 h, 0.045 µM [%]
O=C(NS(=O)(=O)c1nnc(N=Cc2ccc(O)cc2)s1)c1ccccc1 [Compound 9e, N-({5-[(4-Hydroxybenzylidene)amino]-1,3,4-thiadiazol-2-yl}sulfonyl)benzamide] | 26.6

Same assay, conditions: human, HEK 293 cells, 0.13 μM, read-out: % cytotoxicity (100 − % cell survival) of HEK 293 cell line

Structure (SMILES) | cytotoxicity at 72 h, 0.13 µM [%]
O=C(NS(=O)(=O)c1nnc(N=Cc2ccc(O)cc2)s1)c1ccccc1 [Compound 9e, N-({5-[(4-Hydroxybenzylidene)amino]-1,3,4-thiadiazol-2-yl}sulfonyl)benzamide] | 28.3

Same assay, conditions: human, HEK 293 cells, 0.41 μM, read-out: % cytotoxicity (100 − % cell survival) of HEK 293 cell line

Structure (SMILES) | cytotoxicity at 72 h, 0.41 µM [%]
O=C(NS(=O)(=O)c1nnc(N=Cc2ccc(O)cc2)s1)c1ccccc1 [Compound 9e, N-({5-[(4-Hydroxybenzylidene)amino]-1,3,4-thiadiazol-2-yl}sulfonyl)benzamide] | 29.8

Same assay, conditions: human, HEK 293 cells, 1.23 μM, read-out: % cytotoxicity (100 − % cell survival) of HEK 293 cell line

Structure (SMILES) | cytotoxicity at 72 h, 1.23 µM [%]
O=C(NS(=O)(=O)c1nnc(N=Cc2ccc(O)cc2)s1)c1ccccc1 [Compound 9e, N-({5-[(4-Hydroxybenzylidene)amino]-1,3,4-thiadiazol-2-yl}sulfonyl)benzamide] | 30.3

Same assay, conditions: human, HEK 293 cells, 3.7 μM, read-out: % cytotoxicity (100 − % cell survival) of HEK 293 cell line

Structure (SMILES) | cytotoxicity at 72 h, 3.7 µM [%]
O=C(NS(=O)(=O)c1nnc(N=Cc2ccc(O)cc2)s1)c1ccccc1 [Compound 9e, N-({5-[(4-Hydroxybenzylidene)amino]-1,3,4-thiadiazol-2-yl}sulfonyl)benzamide] | 31.4

Same assay, conditions: human, HEK 293 cells, 11.11 μM, read-out: % cytotoxicity (100 − % cell survival) of HEK 293 cell line

Structure (SMILES) | cytotoxicity at 72 h, 11.11 µM [%]
O=C(NS(=O)(=O)c1nnc(N=Cc2ccc(O)cc2)s1)c1ccccc1 [Compound 9e, N-({5-[(4-Hydroxybenzylidene)amino]-1,3,4-thiadiazol-2-yl}sulfonyl)benzamide] | 34.2

Same assay, conditions: human, HEK 293 cells, 33.33 μM, read-out: % cytotoxicity (100 − % cell survival) of HEK 293 cell line

Structure (SMILES) | cytotoxicity at 72 h, 33.33 µM [%]
O=C(NS(=O)(=O)c1nnc(N=Cc2ccc(O)cc2)s1)c1ccccc1 [Compound 9e, N-({5-[(4-Hydroxybenzylidene)amino]-1,3,4-thiadiazol-2-yl}sulfonyl)benzamide] | 37.6

Same assay, conditions: human, HEK 293 cells, 100 μM, read-out: % cytotoxicity (100 − % cell survival) of HEK 293 cell line

Structure (SMILES) | cytotoxicity at 72 h, 100 µM [%]
O=C(NS(=O)(=O)c1nnc(N=Cc2ccc(O)cc2)s1)c1ccccc1 [Compound 9e, N-({5-[(4-Hydroxybenzylidene)amino]-1,3,4-thiadiazol-2-yl}sulfonyl)benzamide] | 39.6

— paper PMC3973950, “Synthesis of 5-arylidine amino-1,3,4-thiadiazol-2-[(N-substituted benzyol)]sulphonamides endowed with potent antioxidants and anticancer activity induces growth inhibition in HEK293, BT474 and NCI-H226 cells” (Medicinal Chemistry Research, 2013)
